Results published in US20200390100A1, “SUBSTITUTED N-HETEROCYCLYL- AND N-HETEROARYL-TETRAHYDROPYRIMIDINONES AND THE SALTS THEREOF, AND THE USE OF SAME AS HERBICIDAL ACTIVE SUBSTANCES” (Bayer Aktiengesellschaft, priority 2017, published 2020).

Key:
Assay in all cases: Herbicidal post-emergence action (Part 2), 1280 g/ha
Type in all cases: in vivo
Abutilon theophrasti = settings: application rate 1280 g/ha, rated visually after about 3 weeks, Table C4
Procedure, shortened: (§1)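 Post-emergence greenhouse test: one-leaf-stage weeds (2–3 wk after sowing, sandy loam) sprayed onto green parts; WP/EC in water + 0.5% additive, 600 L/ha. Visual rating ~3 wk, 0–100% vs untreated.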

Amaranthus retroflexus = settings: application rate 1280 g/ha, rated visually after about 3 weeks, Table C5
Procedure, shortened: as §1

Echinochloa crus-galli = settings: post-emergence (Part 2), application rate 1280 g/ha, rated visually after about 3 weeks vs untreated controls
Procedure, shortened: as §1

Matricaria inodora = settings: application rate 1280 g/ha, rated visually after about 3 weeks, Table C6
Procedure, shortened: as §1

Poa annua = settings: application rate 1280 g/ha, rated visually after about 3 weeks, Table C2
Procedure, shortened: as §1

Setaria viridis = settings: application rate 1280 g/ha, rated visually after about 3 weeks, Table C3
Procedure, shortened: as §1

Stellaria media = settings: application rate 1280 g/ha, rated visually after about 3 weeks, Table C7
Procedure, shortened: as §1

CC1CC(O)N(c2cc(C(C)(C)C)on2)C(=O)N1C (stereo not shown) [I.41-162, 1-(5-tert-Butyl-1,2-oxazol-3-yl)-6-hydroxy-3,4-dimethyltetrahydropyrimidin-2(1H)-one]
100%: Abutilon theophrasti (Abutilon theophrasti) | Amaranthus retroflexus (Amaranthus retroflexus) | Echinochloa crus-galli (Echinochloa crus-galli) | Matricaria inodora (Matricaria inodora) | Poa Annua (Poa annua) | Setaria viridis (Setaria viridis) | Stellaria media (Stellaria media)
